Measurements published in US20090099218A1, “SYNTHESIS OF NOVEL TUBULIN POLYMERIZATION INHIBITORS: BENZOYLPHENYLUREA (BPU) SULFUR ANALOGS” (priority 2007, published 2009).

How the values were obtained:
tubulin = experiment: Inhibition of [3H]colchicine binding; conditions: Tubulin 1 μM; [3H]colchicine and inhibitor at 5 μM
[1] = tested on: seven pancreatic cell lines; experiment: MTT cytotoxicity, panel of seven pancreatic cancer cell lines; type: cell-based; conditions: seven pancreatic cell lines
Method: (§1) Eight of these analogs 6d, 6h, 6n, 6g, 7b, 7d, 8g, and 8h were tested for their cytotoxicity in seven pancreatic cell lines ASPC1, Panc1, Panc203, Panc430, Pane 1005, MiaPaca2, and HS766T using MTT assay. Cells were trypsinized, seeded at 5×10^3 cells/well in 96-well plate and allowed to grow for 24 hours before the treatment with exponential increasing concentrations of drugs in the presence of 10% FBS. After a 96-hours period of treatment, 20 μl of MTT solution (5 mg/ml in PBS) were added to each well, and the plates were then incubated for 3 hours at 37° C. Medium was then replaced with 100 μl of DMSO per well. Plates were shaken and the optical density was measured at 570 nm using a multiwell plate reader (Bio-Rad, Model 550, Bio-Rad Inc., Hercules, Calif.). Each experiment was performed in triplicate for each drug concentration and was carried out independently at least 3 times. The IC50 value was defined as the concentration needed for a 50% reduction in the absorbance calculated based on the survival curves. Response to drug treatment was assessed by standardizing treatment groups to untreated controls. Compounds activity was compared with compound 1.
(§2) Table 2 (Growth Inhibition of Pancreatic Cancer Cell Lines by BPU and BPTU Analogues (IC50) a) compares the cytotoxicity of a series of new derivatives against a panel of seven pancreatic cancer cell lines, as determined by MTT assay. See, Mosmann, T., J. Immunol. Methods 65:55-63 (1983).

CWR22R = experiment: MTT growth inhibition, prostate cancer cell line CWR22R; type: cell-based, human; conditions: for IC50: Homo sapiens, 22Rv1, MTT assay, average of three independent experiments
MCF-7 cells = experiment: Apoptosis of MCF-7 cells; type: cell-based; conditions: 48 hours
[2] = tested on: 11 pancreatic cancer cell line panel; experiment: Clonogenic growth, pancreatic cancer cell line panel; type: cell-based; conditions: doses above 0.5 μmol/L
Method: The cell lines ASPC1, MiaPaca2, HS766T, and L36PL were obtained from the American Tissue Culture Collection and are derived from pancreas carcinomas. The cell lines Panc1, Panc203, and Panc1005 are low-passage pancreas cell lines. The cell lines XPA3 and XPA4 are lowpassage. The cell lines E3LZ10 and E3JD13 are lowpassage pancreas cell lines. For clonogenic assessment, 500 cells per well were seeded in six-well plates with enriched RPMI (10% fetal bovine serum+1% penicillin/streptomycin) and exposed to increasing drug concentrations for 96 h. After this, the drug was removed, and the cells were allowed to grow for 14 days before manual colony counting. Each experiment was done in duplicate for each drug concentration and was carried out independently at least thrice. For MAPT protein and mRNA expression analysis, the cell lines were grown in six-well plates with enriched RPMI. When the cells reached a 60% to 70% confluence, they were washed twice with chilled PBS; lysis buffer was added to the plates; and the cells were scraped for protein extraction. An identical experimental set was lysed with RLT (Qiagen) for mRNA extraction.
Clonogenic growth was impaired at concentrations between 0.01 and 0.5 μmol/L (FIG. 35B), with no colony formation at higher doses in 9 of the 11 cell lines. […] Two isoforms of MAPT protein were detected (45 and 65 kDa). […]

ASPC1 = experiment: MTT growth inhibition, pancreatic cell line ASPC1; type: cell-based; conditions: Homo sapiens, ASPC1; MTT assay, 96 h treatment; average of three independent experiments
Method: as §1, §2

SMILES: O=C(NC(=O)c1ccccc1[N+](=O)[O-])Nc1ccc(Sc2ncc(Br)cn2)cc1 [Compound 6n, 1-[4-(5-Bromopyrimidin-2-ylsulfanyl)phenyl]-3-(2-nitrobenzoyl)-urea]
- colchicine binding (% ± SD), inhibition of [3H]colchicine binding (tubulin): 17 ± 3%
- potency relative to compound 1, pancreatic cell lines [1]: 20 time
- increase in potency over 6m (CWR22R; CWR22R): 100 fold
- IC50 (CWR22R): 50 nM
- rate of apoptosis (MCF-7 cells; 10 nM): 29.7%
- rate of apoptosis (MCF-7 cells; 30 nM): 51.2%
- rate of apoptosis (MCF-7 cells; 100 nM): 53.6%
- cell lines with no colony formation at higher doses [2]: 9 of the 11
- IC50 (ASPC1): 1000 nM

SMILES: Nc1ccccc1C(=O)NC(=O)Nc1ccc(Sc2ncc(Br)cn2)cc1 [Compound 7d]
- potency relative to compound 1, pancreatic cell lines [1]: 20 time
- IC50 (CWR22R): 500 nM
- cell lines with no colony formation at higher doses [2]: 9 of the 11
- IC50 (ASPC1): 450 nM
